According to US6358977B1, “Use of 4-piperidinemethanol derivatives in treatment of neurodevelopmental disorders” (A. Carlsson Research AB, priority 1998, dated 2002):
Entries after “also recorded” stand apart in the source; their conditions may differ.

Test system: Male NMRI mice
Assay: Animal model of autism: defective habituation (locomotor activity) in mice rendered hypoglutamatergic with MK-801
Assay type: in vivo
Source text: The inventor of the present invention and her coworkers have developed an animal model of autism, where mice are rendered hypoglutamatergic by treatment with the glutamate antagonist MK-801 (dizocilpine). Similarly to persons with autism, these hypoglutamatergic animals display defective habituation, perseverant behavior (e.g. relentless forward locomotion, so-called “obstinate progression”), stereotypies, a meager behavioral repertoire and difficulties to change behavioral program. The researchers have chosen to focus their investigation on the defective habituation, since this variable is easily quantified, and a prominent feature of autism.
Male NMRI mice (B&K Universal AB, Sollentuna, Sweden) weighing 25-30g at the time of testing were used in the experiments. Animals were housed in groups of about 20 per cage for at least one week before the experiment was carried out, with free access to water and food. Temperature: 20-22° C.; 12h light-dark cycle (lights on 6 AM).
(+)-MK-801 hydrogen maleate (dizocilpine; Research Biochemical Inc) was dissolved in physiological saline. M100907 [(+)-(R)-α-(2,3-dimethoxyphenyl)-1-[2-(4-fluorophenyl) ethyl]-4-piperidinemethanol; courtesy Hoechst Marion Roussel, Inc USA] was dissolved in a few microliters of acetic acid and a 5.5% glucose solution. The injection volume was 10 ml/kg. Control. animals were always given the same solvent as the drug was dissolved in.
Locomotor activity was measured using activity meters (Diaiscan animal activity monitor, model RXYZM (16) Tao, Omnitech Electronics, Columbus, Ohio, USA). The equipment consists of eight light and sound attenuated boxes (42×42×30 cm) with infrared photo sensors along the front and the side near the floor of the boxes.
When moved to a novel environment, normal mice display an initial phase of exploratory activity lasting about 30 minutes. […] The results shown in the figure are medians and upper and lower quartiles.
The inventor and […] co-workers then tested a compound according to the invention, namely M100907. […] M100907 was administered intraperitoneally immediately before the commencement of the behavioral recording. The M100907 doses were 0.001., 0.01 and 0.1 mg/kg, respectively. The results shown are medians and upper and lower quartiles (veh=vehicle=controls).

| SMILES | effect on MK-801-induced deficient habituation (loss of habituation, FIG. 2) (M100907 0.001, 0.01 and 0.1 mg/kg intraperitoneally immediately before behavioral recording, MK-801-treated mice, ordinate m/30 min) | interference with normal behavior (M100907 0.001, 0.01 and 0.1 mg/kg intraperitoneally, mice) | hyperactivity induced by the glutamate antagonist MK-801 (mouse, M100907 intraperitoneally) | habituation in novel environment (loss of habituation, FIG. 1) (MK-801 0.3 or 0.8 mg/kg intraperitoneally immediately before 70 minutes recording, ordinate counts/5 min interval) |
| --- | --- | --- | --- | --- |
| COc1cccc([C@H](O)C2CCN(CCc3ccc(F)cc3)CC2)c1OC [M100907, R-(+)-α-(2,3-dimethoxyphenyl)-1-[2-(4-fluorophenylethyl)]-4-piperidine-methanol] | displays anti-autistic effects; also recorded: alleviates the deficient habituation | without interfering with normal behavior | reducing the hyperactivity | – |
| C[C@]12N[C@H](Cc3ccccc31)c1ccccc12 [MK-801, reference compound] | – | – | – | deficient habituation; also recorded: impaired habituation |
